Laboratory results: article PMC6451745, “Development and dosimetry of ^203Pb/^212Pb-labelled PSMA ligands: bringing “the lead” into PSMA-targeted alpha therapy?” (European Journal of Nuclear Medicine and Molecular Imaging, 2019)
Where two headings read alike, the source gives them in different places. Each block holds one compound with its values, some of them ahead of it.

Columns and labels:
[1] = design: method as in PMID 25883127; settings: previously determined; cited from earlier work
[2] = biological target: T1, PSMA (Homo sapiens, UniProt Q04609); assay: Competitive binding assay on C4-2 cells; settings: reference ^68Ga-labelled PSMA-HBED-CC dimer (PSMA-10), mean ± SD
T1 construct: host or cells: C4-2 cells (LNCaP subline)
Protocol: (§1) In vitro and in vivo experiments were performed using the PSMA-positive C4-2 cell line, a subline of the LNCaP (lymph node carcinoma of the prostate) cell line (CRL-3314; American Type Culture Collection). C4-2 cells were cultivated in RPMI-1640 (PAN Biotech) supplemented with 10% fetal calf serum and stable glutamine (PAN Biotech). Cells were grown at 37 °C and incubated in humidified air equilibrated with 5% CO2.
A MultiScreenHTS-DV filter plate was incubated at room temperature with 100 μl phosphate-buffered saline (PBS) containing 1% bovine serum albumin (BSA) per well for 30 min. After removal of the PBS/BSA solution, 1 × 10^5 C4-2 cells in Opti-MEM were added to each well. All nonlabelled compounds were dissolved in 300 μl Opti-MEM at the following concentrations: 0, 0.5, 1, 2.5, 5, 10, 25, 50, 100, 500, 1,000 and 5,000 nM. Subsequently, 3 μl of the radiolabelled compound was added, and 50 μl of this mixture was taken to obtain a solution containing 0.75 nM of the radiolabelled ligand. After 45 min incubation at 37 °C, the cells were washed twice with PBS, the radioactivity accumulated in the cells was collected, and the remaining radioactivity was measured in a gamma counter. The inhibitory potency was determined using ^68Ga-labelled PSMA-HBED-CC dimer (i.e. PSMA-10) as the reference. The 50% inhibitory concentration was calculated using a nonlinear regression algorithm (GraphPad Prism 5.01 software). The experiments were performed in quadruplicate.

[3] = system: C4-2 tumour-bearing mice; assay: Planar scintigraphic imaging in tumour-bearing mice; format: in vivo; settings: ^203Pb-labelled
Protocol: (§2) The in vivo experiments were carried out in accordance with the laws on animal welfare of the Federal Republic of Germany. For imaging and biodistribution studies, male BALB/c nu/nu mice (20–25 g; Charles River) bearing C4-2 tumour xenografts were used. The mice were inoculated subcutaneously in the right trunk with 5 × 10^6 C4-2 cells in 50% Matrigel in Opti-MEM (1×). For small-animal imaging the mice were anaesthetized with 2% sevoflurane, and then 0.1 nmol (1.0 MBq) of the respective ^203Pb ligand was injected into a tail vein. Serial planar scans were performed using a Gamma Imager-sct (Biospace Lab, Paris, France) with a parallel collimator (35 mm/1.8 mm/0.2 mm) after 10 min, 1 h, 4 h and 24 h. Based on the imaging results, compound CA012 was chosen for biodistribution studies. Experiments were performed in triplicate. For biodistribution, 0.025 nmol (1 MBq) of labelled compound per mouse was administered by injection into a tail vein. After 10 min, 1 h, 4 h and 24 h the mice were killed, the organs were dissected and weighed, and activity was measured using a gamma counter (Packard Cobra Auto-gamma). The organ uptakes were calculated as the percentage of the injected dose per gram of tissue (%ID/g).

[4] = Stability of ^203Pb-labelled compounds in human serum; format: in vitro ADME; settings: 37 °C, up to 72 h, radio-HPLC
Protocol: The conjugates (1 mM in water, 80 μl, 80 nmol) were added to 400 μl sodium acetate buffer (0.4 M in water, pH 5.0), 10 μl ascorbic acid (20% in water) and 140 μl ^203Pb-chloride solution in 0.04 M HCl, with specific activity approximately 102.6 TBq/g (Lantheus Medical Imaging, North Billerica, MA, USA). The mixture was then heated at 95 °C for 5 min. Labelling was controlled by radio-HPLC. The stability of the ^203Pb-labelled compounds was evaluated in 300 μl human serum at 37 °C for up to 72 h. After precipitation of the serum proteins by addition of two parts acetonitrile, the solution was centrifuged for 5 min at 13,000 rpm (twice) and the supernatant was analysed by radio-HPLC (0–100% MeCN over 5 min, monolith column).

[5] = design: method as in PMID 28408529; settings: projected treatment activity 6–8 MBq; cited from earlier work
[6] = biological target: T1, PSMA; design: method as in PMID 25883127; settings: reference compound; cited from earlier work
[7] = cited from earlier work
[8] = system: C4-2 tumour-bearing mice; assay: Biodistribution (organ distribution) in tumour-bearing mice; format: in vivo; settings: for Organ distribution, Kidneys: 0.025 nmol i.v., n = 3
Protocol: as §2

[9] = system: C4-2 cells; assay: Determination of specific internalization ratio; format: cell-based
Protocol: as §1
For determination of the specific internalization ratio, 24-well plates were incubated for 20 min with 0.1% poly-L-lysine in PBS at room temperature and washed once with PBS. In the next step, 1 ml RPMI containing 1 × 10^5 C4-2 cells was added to each well and incubated overnight. The conditions during the experiment for each compound were: incubation at 37 °C or 4 °C with or without receptor blocking via 2-(phosphonomethyl)pentanedioic acid (2-PMPA; Axxora) at a final concentration of 500 μM. The cells were then incubated with 250 μl of a 30 nM solution of ^203Pb-labelled compound. The plates were incubated either for 45 min in a water bath at 37 °C or on ice at 4 °C. The cells were then washed three times with 1 ml ice-cold PBS and incubated with 0.5 ml glycine (50 mM in HCl, pH 2.8) for 5 min. After an additional washing step with 1 ml ice-cold PBS, the cells were lysed with 0.5 ml 0.3 M NaOH and collected, and the radioactivity was measured with a gamma counter for 1 min. The specific cellular uptake was determined as the percentage of initially added radioactivity bound per 10^6 cells (%IA/10^6 cells) by subtraction of the respective uptake under blocking conditions. All experiments were performed in triplicate.

[10] = design: method as in PMID 28891033; settings: projected treatment activity 1 GBq; cited from earlier work
[11] = design: method as in PMID 10755652, doi:10.1039/C39890000145, doi:10.1021/ja00130a008; settings: cited from earlier work
[12] = ^203Pb-labelled compound 30 nM, 45 min, 2-PMPA blocking subtracted, mean ± SD n = 3

T1 sequence (Q04609 whole entry): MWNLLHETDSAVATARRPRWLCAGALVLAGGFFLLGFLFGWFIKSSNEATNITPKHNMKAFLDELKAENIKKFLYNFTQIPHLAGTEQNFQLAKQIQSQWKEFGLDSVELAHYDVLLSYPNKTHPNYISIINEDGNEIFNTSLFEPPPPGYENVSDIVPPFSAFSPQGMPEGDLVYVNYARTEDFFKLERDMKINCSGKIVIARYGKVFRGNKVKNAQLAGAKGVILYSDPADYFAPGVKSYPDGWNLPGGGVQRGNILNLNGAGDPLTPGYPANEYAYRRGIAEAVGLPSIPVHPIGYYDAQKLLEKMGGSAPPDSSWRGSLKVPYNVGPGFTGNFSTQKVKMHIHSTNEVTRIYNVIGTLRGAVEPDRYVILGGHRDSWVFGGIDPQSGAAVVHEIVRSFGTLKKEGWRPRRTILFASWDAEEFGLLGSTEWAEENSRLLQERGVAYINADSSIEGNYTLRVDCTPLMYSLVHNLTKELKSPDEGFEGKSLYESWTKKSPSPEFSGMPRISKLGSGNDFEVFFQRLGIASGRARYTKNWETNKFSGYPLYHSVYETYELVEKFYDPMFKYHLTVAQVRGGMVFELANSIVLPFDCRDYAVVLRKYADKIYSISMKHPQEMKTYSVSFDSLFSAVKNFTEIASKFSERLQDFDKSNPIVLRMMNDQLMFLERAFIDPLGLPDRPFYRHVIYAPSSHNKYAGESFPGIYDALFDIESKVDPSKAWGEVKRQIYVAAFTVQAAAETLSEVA

Compound: O=C([O-])CN1CCN(CC(=O)[O-])CCN(CC(=O)NCC2CCC(C(=O)N[C@@H](Cc3ccc4ccccc4c3)C(=O)NCCCC[C@H](NC(=O)N[C@@H](CCC(=O)O)C(=O)O)C(=O)O)CC2)CCN(CC(=O)[O-])CC1.[177Lu+3] (some centres unmarked) [^177Lu-PSMA-617]
- specific internalization [1]: 18 %ID per 10^6cells

- Ki [2]: 28.1 ± 2.9 nM
- tumour uptake in mice (planar scintigraphy) ([3]; 1 h after injection, Fig. 3): low tumour uptake
- stability in human serum [4]: high stability
Compound: NC(=O)CN1CCN(CC(N)=O)CCN(CC(=O)NC(Cc2ccc3ccccc3c2)C(=O)NCCCC[C@H](NC(=O)N[C@@H](CCC(=O)O)C(=O)O)C(=O)O)CCN(CC(N)=O)CC1 (some centres unmarked) [CA011]

Compound: O=C([O-])CC[C@H](NC(=O)N[C@@H](CCCCNC(=O)[C@H](Cc1ccc2ccccc2c1)NC(=O)C1CCC(CNC(=O)CN2CCN(CC(=O)[O-])CCN(CC(=O)[O-])CCN(CC(=O)[O-])CC2)CC1)C(=O)[O-])C(=O)[O-].[225Ac].[H+].[H+].[H+] (some centres unmarked) [^225Ac-PSMA-617]
- Tissue equivalent dose, Kidneys [5]: 4.2 SvRBE5
- Tissue equivalent dose, Red marrow [5]: 0.3 SvRBE5
- Tissue equivalent dose, Salivary glands [5]: 13.8 SvRBE5

Compound: O=C(O)CC[C@H](NC(=O)N[C@@H](CCCCNC(=O)[C@H](Cc1ccc2ccccc2c1)NC(=O)[C@H]1CC[C@H](CNC(=O)CN2CCN(CC(=O)O)CCN(CC(=O)O)CCN(CC(=O)O)CC2)CC1)C(=O)O)C(=O)O [PSMA-617]
- affinity (in words) [6]: single-digit affinity
- kidney accumulation ([7]; mice, after 24 h): 1%
- kidney accumulation ([7]; mouse, in vivo, 1 h): 113.3 ± 24.4 %ID/g

- Ki [2]: 24.3 ± 3.7 nM
- Organ distribution, Kidneys ([8]; C4-2 tumour-bearing mice, 1 h): 5.1 ± 2.5 % ID/g
- Organ distribution, Kidneys ([8]; C4-2 tumour-bearing mice, 24 h): 0.9 ± 0.1 % ID/g
- kidney accumulation ([8]; mice, after 24 h): 2%
- kidney clearance (comparison) ([3]; Fig. 4): faster kidney clearance than CA009
- stability in human serum [4]: high stability
Compound: NC(=O)CN1CCN(CC(N)=O)CCN(CC(=O)NCC2CCC(C(=O)NC(Cc3ccc4ccccc4c3)C(=O)NCCCC[C@H](NC(=O)N[C@@H](CCC(=O)O)C(=O)O)C(=O)O)CC2)CCN(CC(N)=O)CC1 (some centres unmarked) [CA012]
- specific uptake in tumours versus other organs ([8]; in vivo, C4-2 tumour-bearing mice): higher specific uptake in tumours than in other organs
- specific ligand-induced internalization [9]: 15.6 ± 2.1 %IA/10^6 cells
- Specific cell surface [9, 12]: 132.1 ± 4.3 %IA/10^6 cells
- Specific lysate (specific internalization) [9, 12]: 15.6 ± 2.1 %IA/10^6 cells

Compound: O=C(O)CC[C@H](NC(=O)N[C@@H](CCCCNC(=O)C(Cc1ccc2ccccc2c1)NC(=O)C1CCC(CNC(=O)CN2CCN(CC(=O)O)CCN(CC(=O)O)CCN(CC(=O)O)CC2)CC1)C(=O)O)C(=O)O.[213Bi+3] (some centres unmarked) [^213Bi-PSMA-617]
- Tissue equivalent dose, Kidneys [10]: 8.1 SvRBE5
- Tissue equivalent dose, Red marrow [10]: 0.5 SvRBE5
- Tissue equivalent dose, Salivary glands [10]: 8.1 SvRBE5

Compound: O=C(O)CC[C@H](NC(=O)N[C@@H](CCCCNC(=O)C(Cc1ccc2ccccc2c1)NC(=O)C1CCC(CNC(=O)CN2CCN(CC(=O)O)CCN(CC(=O)O)CCN(CC(=O)O)CC2)CC1)C(=O)O)C(=O)O.[68Ga+3] (some centres unmarked) [^68Ga-PSMA-617]
- tumour uptake ([7]; mice): 8.5 ± 4.1 %ID/g

Compound: O=C(O)CN1CCN(CC(=O)O)CCN(CC(=O)O)CCN(CC(=O)O)CC1 [DOTA, 1,4,7,10-tetraazacyclododecane-1,4,7,10-tetraacetic acid]
- pH at which stable complexes with lead(II) are formed [11]: > 3.5

Compound: NC(=O)CN1CCN(CC(N)=O)CCN(CC(N)=O)CCN(CC(N)=O)CC1 [TCMC, 1,4,7,10-tetra-(2-carbamoyl-methyl)-cyclododecane]
- pH at which stable complexes with lead(II) are formed [11]: > 2
